Assays:
[1] = target: 5-hydroxytryptamine receptor 7 (Rattus norvegicus, UniProt P32305)
[2] = target: 5-hydroxytryptamine receptor 2A (Rattus norvegicus, UniProt P14842)
[3] = target: Sodium-dependent serotonin transporter (Rattus norvegicus, UniProt P31652)
[4] = target: T1, 5-hydroxytryptamine receptor 1A (Rattus norvegicus, UniProt P19327)
T1 sequence (P19327 whole entry): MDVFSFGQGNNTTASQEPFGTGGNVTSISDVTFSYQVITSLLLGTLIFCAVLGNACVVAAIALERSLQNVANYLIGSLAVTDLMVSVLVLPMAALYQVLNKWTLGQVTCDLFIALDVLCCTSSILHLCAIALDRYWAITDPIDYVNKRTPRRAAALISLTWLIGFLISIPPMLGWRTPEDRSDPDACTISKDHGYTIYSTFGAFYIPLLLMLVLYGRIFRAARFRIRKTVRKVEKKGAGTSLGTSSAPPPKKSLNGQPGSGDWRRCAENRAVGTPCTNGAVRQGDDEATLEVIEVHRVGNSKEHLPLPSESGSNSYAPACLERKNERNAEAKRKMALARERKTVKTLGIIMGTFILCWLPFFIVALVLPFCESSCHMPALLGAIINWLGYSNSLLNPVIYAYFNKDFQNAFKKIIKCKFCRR

[5] = target: T2, 5-hydroxytryptamine receptor 2C (Rattus norvegicus, UniProt P08909)
T2 sequence (P08909 whole entry): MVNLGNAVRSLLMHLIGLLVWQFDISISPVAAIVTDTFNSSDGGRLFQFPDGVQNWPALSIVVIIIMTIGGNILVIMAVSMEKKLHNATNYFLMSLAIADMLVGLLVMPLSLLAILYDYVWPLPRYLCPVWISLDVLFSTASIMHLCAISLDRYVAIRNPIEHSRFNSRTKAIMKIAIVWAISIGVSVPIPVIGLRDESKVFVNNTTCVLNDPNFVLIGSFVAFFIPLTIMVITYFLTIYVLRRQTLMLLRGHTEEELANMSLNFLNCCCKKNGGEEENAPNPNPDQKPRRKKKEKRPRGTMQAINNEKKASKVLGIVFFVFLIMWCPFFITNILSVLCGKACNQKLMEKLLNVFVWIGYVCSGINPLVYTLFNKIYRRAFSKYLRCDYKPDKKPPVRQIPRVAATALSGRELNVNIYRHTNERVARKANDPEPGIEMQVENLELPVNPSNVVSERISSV

[6] = target: T3, 5-hydroxytryptamine receptor 3A (Rattus norvegicus, UniProt P35563)
T3 sequence (P35563 whole entry): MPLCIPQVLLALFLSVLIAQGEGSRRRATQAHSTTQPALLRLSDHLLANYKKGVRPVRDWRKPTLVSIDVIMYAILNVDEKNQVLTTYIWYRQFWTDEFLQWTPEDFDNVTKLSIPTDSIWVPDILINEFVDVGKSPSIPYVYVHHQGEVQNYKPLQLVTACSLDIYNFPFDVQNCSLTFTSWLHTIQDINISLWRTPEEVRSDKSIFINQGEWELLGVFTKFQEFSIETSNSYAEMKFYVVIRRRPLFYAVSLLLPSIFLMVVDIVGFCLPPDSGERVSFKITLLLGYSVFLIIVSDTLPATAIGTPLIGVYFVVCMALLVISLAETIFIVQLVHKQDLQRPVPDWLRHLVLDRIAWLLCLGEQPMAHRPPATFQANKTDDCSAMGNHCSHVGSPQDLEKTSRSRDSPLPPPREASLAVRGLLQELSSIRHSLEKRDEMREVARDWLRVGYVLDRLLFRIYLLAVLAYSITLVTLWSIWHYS

[7] = target: 5-hydroxytryptamine receptor 6 (Rattus norvegicus, UniProt P31388)
[8] = target: 5-hydroxytryptamine receptor 1B (Bos mutus, UniProt L8IGV0)
Sequence of 5-hydroxytryptamine receptor 1B (L8IGV0 whole entry): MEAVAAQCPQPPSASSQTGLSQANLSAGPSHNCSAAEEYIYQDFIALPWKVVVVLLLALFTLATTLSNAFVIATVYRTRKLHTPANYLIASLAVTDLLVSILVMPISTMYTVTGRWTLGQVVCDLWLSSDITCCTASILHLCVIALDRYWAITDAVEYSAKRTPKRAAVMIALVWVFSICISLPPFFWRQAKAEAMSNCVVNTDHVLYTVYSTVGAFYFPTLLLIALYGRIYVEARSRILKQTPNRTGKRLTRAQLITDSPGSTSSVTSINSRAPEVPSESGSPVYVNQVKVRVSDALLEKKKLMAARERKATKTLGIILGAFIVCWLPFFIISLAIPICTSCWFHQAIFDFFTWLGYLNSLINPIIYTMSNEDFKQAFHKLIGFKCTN

Sequence of 5-hydroxytryptamine receptor 7 (P32305 whole entry): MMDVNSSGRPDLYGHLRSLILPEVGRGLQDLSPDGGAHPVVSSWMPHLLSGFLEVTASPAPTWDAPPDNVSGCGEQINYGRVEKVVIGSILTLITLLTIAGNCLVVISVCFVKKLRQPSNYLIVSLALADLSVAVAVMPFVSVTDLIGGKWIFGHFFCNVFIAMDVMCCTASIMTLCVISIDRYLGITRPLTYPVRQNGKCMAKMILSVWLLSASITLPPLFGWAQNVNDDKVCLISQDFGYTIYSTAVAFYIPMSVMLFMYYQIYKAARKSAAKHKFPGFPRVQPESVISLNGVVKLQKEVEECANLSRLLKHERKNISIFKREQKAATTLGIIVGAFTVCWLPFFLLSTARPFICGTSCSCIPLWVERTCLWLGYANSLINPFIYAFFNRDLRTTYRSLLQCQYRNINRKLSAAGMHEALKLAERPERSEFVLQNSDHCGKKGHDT
Sequence of 5-hydroxytryptamine receptor 6 (P31388 whole entry): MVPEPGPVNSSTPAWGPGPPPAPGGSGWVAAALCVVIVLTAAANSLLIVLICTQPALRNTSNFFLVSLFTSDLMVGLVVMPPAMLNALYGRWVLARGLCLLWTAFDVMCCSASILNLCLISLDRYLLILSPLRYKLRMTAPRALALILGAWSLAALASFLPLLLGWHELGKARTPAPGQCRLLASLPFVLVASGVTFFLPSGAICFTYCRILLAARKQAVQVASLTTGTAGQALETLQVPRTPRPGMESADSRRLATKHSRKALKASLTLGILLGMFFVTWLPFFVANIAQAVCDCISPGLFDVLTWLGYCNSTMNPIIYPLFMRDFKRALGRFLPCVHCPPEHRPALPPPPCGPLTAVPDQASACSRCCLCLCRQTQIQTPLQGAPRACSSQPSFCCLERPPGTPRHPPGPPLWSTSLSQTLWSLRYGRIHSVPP
Sequence of 5-hydroxytryptamine receptor 2A (P14842 whole entry): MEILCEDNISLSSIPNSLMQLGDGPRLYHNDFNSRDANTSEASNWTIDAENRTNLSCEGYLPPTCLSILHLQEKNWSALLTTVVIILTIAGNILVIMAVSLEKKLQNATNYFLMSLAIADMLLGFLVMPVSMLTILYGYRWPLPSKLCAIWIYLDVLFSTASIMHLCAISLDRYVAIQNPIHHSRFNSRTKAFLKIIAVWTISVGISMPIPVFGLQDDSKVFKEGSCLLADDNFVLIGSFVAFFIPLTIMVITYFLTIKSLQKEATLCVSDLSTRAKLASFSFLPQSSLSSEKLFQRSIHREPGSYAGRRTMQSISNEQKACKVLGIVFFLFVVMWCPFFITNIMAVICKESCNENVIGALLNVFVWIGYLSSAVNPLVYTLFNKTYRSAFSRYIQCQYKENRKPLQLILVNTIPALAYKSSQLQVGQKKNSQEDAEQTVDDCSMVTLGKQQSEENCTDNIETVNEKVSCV
Sequence of Sodium-dependent serotonin transporter (P31652 whole entry): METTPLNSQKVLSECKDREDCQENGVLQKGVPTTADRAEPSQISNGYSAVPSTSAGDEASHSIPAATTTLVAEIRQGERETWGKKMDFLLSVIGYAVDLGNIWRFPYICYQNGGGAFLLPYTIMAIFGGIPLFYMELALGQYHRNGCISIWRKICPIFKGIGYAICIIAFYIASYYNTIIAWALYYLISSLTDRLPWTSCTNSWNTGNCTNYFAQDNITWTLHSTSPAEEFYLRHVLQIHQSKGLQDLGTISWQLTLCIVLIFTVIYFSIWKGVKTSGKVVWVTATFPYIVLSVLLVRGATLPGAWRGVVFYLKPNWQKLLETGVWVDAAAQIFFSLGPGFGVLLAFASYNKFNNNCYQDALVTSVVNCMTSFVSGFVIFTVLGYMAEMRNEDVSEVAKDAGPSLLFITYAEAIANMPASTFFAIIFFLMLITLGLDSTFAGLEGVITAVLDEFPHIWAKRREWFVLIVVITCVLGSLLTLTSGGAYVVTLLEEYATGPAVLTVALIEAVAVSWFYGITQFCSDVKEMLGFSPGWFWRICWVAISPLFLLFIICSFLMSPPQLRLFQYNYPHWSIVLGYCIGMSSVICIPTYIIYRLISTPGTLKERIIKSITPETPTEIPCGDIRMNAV

Ki [1] [nM]	Ki [2] [nM]	Ki [3] [nM]	Ki [4] [nM]	Ki [5] [nM]	Ki [6] [nM]	Ki [7] [nM]	Ki [8] [nM]	SMILES
88	1000	> 10000	0.26	500	500	> 10000	–	CCCN(C(C)C)[C@H]1COc2cccc(C(N)=O)c2C1 [(R)-3-[Isopropyl(propyl)amino]-3,4-dihydro-2H-1-benzopyran-5-carboxamide]
240	> 10000	–	4.5	500	500	> 10000	1400	CCCN(C(C)C)[C@H]1COc2cccc(C(=O)NC(C)C)c2C1 [(R)-N-Isopropyl-3-[isopropyl(propyl)amino]-3,4-dihydro-2H-1-benzopyran-5-carboxamide]

Reference: BindingDB's records for PubMed 11714872 (Astrazeneca R&D, 2001)
